Data as given in article PMC5835975, “[^64Cu]NOTA-pentixather enables high resolution PET imaging of CXCR4 expression in a preclinical lymphoma model” (EJNMMI Radiopharmacy and Chemistry, 2017).
Read-outs that look alike come from different tables or passages of the source. Where a SMILES comes first, the peptide text is derived from it. Side-chain parts run from the residue outwards. [ ]: non-standard residue; d: D form. The star is where a group is joined. NODAGA = O=C(O)CN1CCN(CC(=O)O)CCN(C(CCC(=O)*)C(=O)O)CC1; NOTA = O=C(O)CN1CCN(CC(=O)O)CCN(CC(=O)*)CC1; dTyr(3-I) = N[C@H](Cc1ccc(O)c(I)c1)C(=O)O; 2Nal = N[C@@H](Cc1ccc2ccccc2c1)C(=O)O; dNMeOrn = CN[C@H](CCCN)C(=O)O; 4Amb = NCc1ccc(C(=O)O)cc1

Tests used:
human CXCR4 = target: T1, human CXCR4 (Homo sapiens, UniProt P61073); test: Competitive binding assay on Jurkat T-cell leukemia cells with [^125I]FC131 as radioligand; conditions: Jurkat cells 400.000 cells/sample, [^125I]FC131 radioligand, mean ± SD, min. three determinations
T1 construct: CXCR4-expressing Jurkat T-lymphocytes (4 × 10^5 cells per sample); endogenous in cells; host or cells: Jurkat T-cell leukemia cells
Procedure: The CXCR4 affinities of [^natCu]NOTA- and [^natCu]NODAGA-pentixather as well as of the corresponding metal free chelator-conjugated peptides were determined in a competitive binding assay using standard conditions (CXCR4-expressing Jurkat T-lymphocytes (4 × 10^5 cells per sample) and [^125I]FC131 as the radioligand (Poschenrieder et al. [2016a]; Wester et al. [2015]; Schottelius et al. [2015]; Poschenrieder et al. [2016b])) (Table 1). Data for [^natGa]pentixafor and FC131 are included as a reference. As already observed for [^natGa]pentixafor, metal complexation leads to enhanced CXCR4 affinity, both for [^natCu]NOTA-pentixather and for [^natCu]NODAGA-pentixather.
CXCR4 affinities were determined using Jurkat T-cell leukemia cells and [^125I]FC131 as the radioligand (Poschenrieder et al. [2016b]). Briefly, cells (4 × 10^5 cells per vial) were incubated with app. 0.1 nM of [^125I]FC131 in the presence of varying concentrations (10^−11 to 10^−5 M) of the respective peptide of interest (n = 3 samples/concentration) for 120 min at RT. After centrifugation and repeated washing steps, the amount of free and bound radioligand were quantified for each sample using a γ-counter, and IC50 values were calculated using GraphPad Prism 6.01 software.

[1] = assay type: physicochemical; conditions: pH 7.4
Procedure: The lipophilicity and serum stability of [^64Cu]NOTA-pentixather were determined as described previously (Poschenrieder et al. [2016a]). Briefly, to a solution of app. 2 kBq of radiolabelled peptide in 500 μL of PBS (pH 7.4), 500 μL of octanol were added (n = 6). Vials were vortexed vigorously for 3 min. To achieve quantitative phase separation, the vials were centrifuged at 14,600 · g for 6 min in a Biofuge 15 (Heraeus Sepatech, Osterode, Germany). The activity concentrations in 100 μL samples of both the aqueous and the organic phase were measured in a gamma counter, and the log Pow was calculated.

[2] = design: species or system mice; conditions: mouse, in vivo, iv
Procedure: (§1) Biodistribution data of [^64Cu]NOTA-pentixather at 1.5 h p.i. (n = 5, black bars) and 24 h p.i. Given the fact that Jurkat cells, which are generally used for the determination of CXCR4 affinity, are not tumorigenic in mice and to ensure comparability of data with previous studies (Poschenrieder et al. [2016a]; Wester et al. [2015]; Schottelius et al. [2015]), the Daudi lymphoma model was also used in this study. […] While the tumor-to-background ratios for most tissues remain unchanged or decrease within the observation period, t/blood and t/intestine ratios increase 1.3 and 2.4 fold between 1.5 and 24 h p.i., respectively.
(§2) Fig. 3 Biodistribution of [^64Cu]NOTA-pentixather at 1.5 h (tracer only, black bars, n = 5) and 24 h p.i. (grey bars, n = 6) in Daudi xenograft-bearing CB-17 SCID mice. Mice were injected with 5.2 MBq [^64Cu]NOTA-pentixather (122 pmol/0.160 μg peptide; AS = 43 GBq/μmol). Non-specific tracer accumulation was determined by coinjection of 2 mg/kg AMD3100 (50 μg/mouse; white bars, n = 3)
(§3) For PET and biodistribution studies, an average of 5.2 MBq [^64Cu]NOTA-pentixather (200 μL in PBS, 122 pmol, 160 ng) with a SA of 43 GBq/μmol was injected intravenously into the tail vein of isofluorane anaesthesized female Daudi (human B-cell lymphoma) xenograft bearing CB17 SCID mice. […] PET imaging with [^64Cu]NOTA-pentixather under ‘tracer only’ (n = 2) as well as blocking conditions (coinjection of 2 mg/kg AMD3100, n = 1) was performed at three different time points (dynamic PET imaging for 1 h, followed by static image acquisition for 15 min after 3.5 and 24 h) using an Inveon Siemens μPET scanner. PET/CT images were reconstructed by a two-dimensional ordered subset expectation maximum (2D-OSEM) algorithm with no attenuation correction. Image analysis was performed using the Inveon software, and results were calculated as %ID/g. For biodistribution studies, the mice were sacrificed at 1.5 h (n = 5) and 24 h (n = 6) p.i., tissues and organs of interest were dissected, weighed, and counted for radioactivity in a γ-counter. The percentage of injected dose per gram of tissue (% ID/g) was calculated; data are presented as mean ± SD.

[3] = tested on: Daudi xenograft-bearing CB-17 SCID mice; conditions: mouse, in vivo
Procedure: as §1, §2, §3

[4] = assay type: physicochemical; conditions: buffer, 24 h, pH 2.5
Procedure: To investigate the in vitro stability of [^64Cu]NOTA-pentixather, the tracer was incubated both in human serum at 37 °C and in 0.1 M EDTA at pH = 2.5 and physiological pH (7.4) at RT for different time points up to 24 h (Fig. 7). [^64Cu]NOTA-pentixather remained stable over 24 h in human serum (>99% intact ^64Cu-chelate).
Fig. 7 In vitro stability of [^64Cu]NOTA-pentixather as a function of incubation time.
For challenging experiments, 4 MBq of [^64Cu]NOTA-pentixather were incubated in 0.1 M EDTA at different pH values (2.5 and 7.4) for a minimum of 24 h. At specific time points, samples were analyzed via radio-TLC using silica gel impregnated chromatography paper (Agilent Technologies, CA, USA) and 0.1 M phosphate buffer (pH = 7.4) containing 10 mM sodium EDTA as the mobile phase.

T1 sequence (P61073 whole entry): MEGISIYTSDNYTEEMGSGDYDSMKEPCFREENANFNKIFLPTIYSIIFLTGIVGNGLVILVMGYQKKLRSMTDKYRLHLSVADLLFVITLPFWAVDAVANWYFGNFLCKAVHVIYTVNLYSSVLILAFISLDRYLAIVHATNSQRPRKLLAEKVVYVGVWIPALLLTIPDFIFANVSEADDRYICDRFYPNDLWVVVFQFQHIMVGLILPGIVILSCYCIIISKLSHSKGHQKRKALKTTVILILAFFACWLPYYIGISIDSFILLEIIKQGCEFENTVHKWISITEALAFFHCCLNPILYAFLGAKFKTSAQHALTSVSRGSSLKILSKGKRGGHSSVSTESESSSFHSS

SMILES	IC50 (human CXCR4) [nM]	logP [1]	tissue uptake at 1.5 h ([2]; Tumor uptake) [%ID/g]	tissue uptake at 1.5 h ([2]; accumulation in the intestines) [%ID/g]	tissue uptake at 1.5 h ([2]; accumulation in the liver) [%ID/g]	tissue uptake at 1.5 h ([2]; activity accumulation in the kidney) [%ID/g]	tissue uptake at 1.5 h ([2]; activity in blood) [%ID/g]	increase of t/blood ratio [3] [fold]	increase of t/intestine ratio [3] [fold]	tracer remaining intact [4]
CN1C(=O)[C@@H](Cc2ccc(O)c(I)c2)NC(=O)CNC(=O)[C@H](Cc2ccc3ccccc3c2)NC(=O)[C@H](CCCNC(=N)N)NC(=O)[C@H]1CCCNC(=O)c1ccc(CNC(=O)CCC(C(=O)O)N2CCN(CC(=O)O)CCN(CC(=O)O)CC2)cc1 (stereo partly shown) [NODAGA-pentixather] (cyclo([2Nal]G[dTyr(3-I)][dNMeOrn]([4Amb-NODAGA])R))	64.9 ± 6.5									
CN1C(=O)[C@@H](Cc2ccc(O)c(I)c2)NC(=O)CNC(=O)[C@H](Cc2ccc3ccccc3c2)NC(=O)[C@H](CCCNC(=N)N)NC(=O)[C@H]1CCCNC(=O)c1ccc(CNC(=O)CN2CCN(CC(=O)O)CCN(CC(=O)O)CC2)cc1 [[^64Cu]NOTA-pentixather, metal not drawn] (cyclo([dTyr(3-I)][dNMeOrn]([4Amb-NOTA])R[2Nal]G))		-1.2	13.1 ± 1.5	5 ± 2.8	7.2 ± 1.1	3.8 ± 0.5	1.1 ± 0.2	1.3	2.4	over 90%
